According to article PMC6112128, “Discovery and characterization of the tubercidin biosynthetic pathway from Streptomyces tubercidicus NBRC 13090” (Microbial Cell Factories, 2018):

Tests used:
TubE = target: T1, TubE (Streptomyces tubercidicus, UniProt A0A384YVR8); assay: HPLC and LC-MS product detection; product NMR; assay type: biochemical; details: 1 mM CDG, 2 mM PRPP, 5 mM MgCl2, 1 mM DTT, 100 mM PBS pH 7.5, 30 °C, 8 h
T1 construct: gene Stube_10250; full-length, 194 aa, His6-tagged (pET28a NdeI-EcoRI), E. coli Rosetta (DE3)/pLysS
T1 sequence (A0A384YVR8 1-194): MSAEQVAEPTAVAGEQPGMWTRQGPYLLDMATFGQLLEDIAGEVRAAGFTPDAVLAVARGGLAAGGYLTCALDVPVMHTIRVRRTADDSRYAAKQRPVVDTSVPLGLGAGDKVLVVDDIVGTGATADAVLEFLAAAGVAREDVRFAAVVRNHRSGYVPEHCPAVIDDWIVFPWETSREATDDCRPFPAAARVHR

TubD = target: T2, TubD (Streptomyces tubercidicus, UniProt A0A384YXG2); assay: LC-MS detection of IMP; assay type: biochemical; details: 1 mM NADPH, 1 mM GMP, 50 mM KCl, 1 mM DTT, 2 mM EDTA, 100 mM Tris-HCl pH 7.5, 30 °C, 4 h
T2 construct: gene Stube_10260; full-length, 385 aa, His6-tagged (pET28a NdeI-EcoRI), E. coli Rosetta (DE3)/pLysS
T2 sequence (A0A384YXG2 1-385): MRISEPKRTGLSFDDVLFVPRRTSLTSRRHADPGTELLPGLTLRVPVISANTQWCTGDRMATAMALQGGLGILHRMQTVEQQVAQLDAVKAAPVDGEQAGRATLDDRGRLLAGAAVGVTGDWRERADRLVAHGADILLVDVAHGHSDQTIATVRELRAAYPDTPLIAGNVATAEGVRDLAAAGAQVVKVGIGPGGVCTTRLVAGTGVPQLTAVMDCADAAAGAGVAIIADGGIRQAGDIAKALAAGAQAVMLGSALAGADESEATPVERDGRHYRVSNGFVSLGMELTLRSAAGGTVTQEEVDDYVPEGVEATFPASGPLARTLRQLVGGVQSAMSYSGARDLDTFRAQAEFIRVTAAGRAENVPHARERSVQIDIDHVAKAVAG

| SMILES | HPLC and LC-MS product detection; product NMR (TubE) | LC-MS detection of IMP (TubD) |
| --- | --- | --- |
| Nc1nc2[nH]cc(C(=O)O)c2c(=O)[nH]1 [CDG] | all of the data demonstrate that TubE functions as a CDG-specific phosphoribosyltransferase |  |
| NC(=O)C1=CN([C@@H]2O[C@H](COP(=O)(O)OP(=O)(O)OC[C@H]3O[C@@H](n4cnc5c(N)ncnc54)[C@H](OP(=O)(O)O)[C@@H]3O)[C@@H](O)[C@H]2O)C=CC1 [NADPH] |  | this cofactor could not replace NADPH to supply reducing equivalents for the TubD reaction |
| O=P(O)(O)OC[C@H]1O[C@H](OP(=O)(O)OP(=O)(O)O)[C@H](O)[C@@H]1O [PRPP] | HPLC profile of the TubE reaction using PRPP and CDG as substrates |  |
